The test system of the experiment is Plasmodium berghei. Nature of the experiment: Luciferase/luciferin-expressing antifolate-resistant parasites were used to infect a culture of HepG2 cells that were pre-incubated with compounds. Infected hepatocytes emit light due to the luciferase reaction. Assay results are presented as the percent inhibition of light emission compared to control. […]. Format: functional. The conditions noted are these: sporozoite; for IC90: read-out: LUCIFERASE INFECTION ASSAY - IC90.

Where only a bound is given, the exact number is not on record here.

Broadly, the IC50 is the midpoint of a concentration-inhibition curve. As a reminder, the IC90 is the point of the concentration-response curve where the effect stands at 90%.

Turning to `Cc1ccc(C(C)C)c(OCc2ccc(C(=O)N/N=C/c3cccc(O)c3O)cc2)c1`, the IC90 was more than 10 µM. The half-maximal inhibitory concentration (IC50) (HEPG2TOX_HILL_SLOPE 2.51, HEPG2TOX_R_SQUARED 0.938, PBLUC_HILL_SLOPE 16, PBLUC_R_SQUARED 0.0407, read-out: LUCIFERASE INFECTION ASSAY - IC50) amounted to 9.9 µM.
With `NC(COCc1ccccc1)c1csc(NC(=O)Nc2cccc(C(F)(F)F)c2)n1` (stereo unspecified), the IC90 is more than 7.56 µM. In addition, the concentration for half-maximal inhibition (IC50) (HEPG2TOX_HILL_SLOPE 2.5, HEPG2TOX_R_SQUARED 0.677, PBLUC_HILL_SLOPE 2.37, PBLUC_R_SQUARED 0.435, read-out: LUCIFERASE INFECTION ASSAY - IC50) came out at 5.16 µM.
With `Cc1cc(O)nc(N/N=C/c2cc(C)n(CC(F)(F)F)c2C)n1`, the 90% effect concentration (IC90) is more than 10 µM. For the same molecule, the 50% inhibitory concentration (IC50) (HEPG2TOX_HILL_SLOPE 2.49, HEPG2TOX_R_SQUARED 0.474, PBLUC_HILL_SLOPE 1.68, PBLUC_R_SQUARED 0.728, read-out: LUCIFERASE INFECTION ASSAY - IC50) is 3.36 µM.
For the molecule `CC(Oc1ccc(Oc2ccc(C(F)(F)F)cc2)cc1)C(=O)N1CCN(c2ccc(C(F)(F)F)cn2)CC1` (stereo unspecified), the IC90 was more than 6.12 µM. Also, for the setting “HEPG2TOX_HILL_SLOPE 2.54, HEPG2TOX_R_SQUARED 0.907, PBLUC_HILL_SLOPE 2.4, PBLUC_R_SQUARED 0.3, read-out: LUCIFERASE INFECTION ASSAY - IC50”, the half-inhibitory concentration (IC50) is 3 µM.
As to `Cc1ccc(-c2noc(CCCN3CCN(c4cnn(-c5ccccc5)c(=O)c4Cl)CC3)n2)cc1`, the IC90 is 5.31 µM. Besides, for the setting “HEPG2TOX_HILL_SLOPE 2.5, HEPG2TOX_R_SQUARED 0.985, PBLUC_HILL_SLOPE 2.59, PBLUC_R_SQUARED 0.752, read-out: LUCIFERASE INFECTION ASSAY - IC50”, the half-maximal inhibitory concentration (IC50) amounted to 2.28 µM.
For `CCNC(=O)NC(=O)CNC(c1ccc(CC)cc1)c1cccc(F)c1` (stereo unspecified), the IC90 is more than 10 µM. For the same molecule, the IC50 (HEPG2TOX_HILL_SLOPE 2.54, HEPG2TOX_R_SQUARED 0.274, read-out: LUCIFERASE INFECTION ASSAY - IC50) was more than 10 µM.
With `COc1cc(OC)cc(-c2cnc3cnc(-c4cccc(C)c4C)cn23)c1`, the 90% effect concentration (IC90) is 8.63 µM. For the same molecule, the IC50 (HEPG2TOX_HILL_SLOPE 2.52, HEPG2TOX_R_SQUARED 0.881, PBLUC_HILL_SLOPE 5.04, PBLUC_R_SQUARED 0.463, read-out: LUCIFERASE INFECTION ASSAY - IC50) stood at 5.58 µM.
As to `CCN1C(=O)N(CCCc2cccnc2)C(=O)C12CCN(Cc1cccc(C(F)(F)F)c1)CC2`, the 90% effect concentration (IC90) is more than 6.95 µM. Moreover, under “HEPG2TOX_HILL_SLOPE 2.53, HEPG2TOX_R_SQUARED 0.847, PBLUC_HILL_SLOPE 12.5, PBLUC_R_SQUARED 0.0898, read-out: LUCIFERASE INFECTION ASSAY - IC50”, the IC50 was 6.59 µM.
For `CC(C(=O)NC(N)=O)N(C)Cc1ccc(OCc2ccc(Cl)cc2)cc1` (stereo unspecified), the 90% effect concentration (IC90) was determined as 9.89 µM. Further, the half-inhibitory concentration (IC50) (HEPG2TOX_HILL_SLOPE 2.51, HEPG2TOX_R_SQUARED 0.952, PBLUC_HILL_SLOPE 1.26, PBLUC_R_SQUARED 0.93, read-out: LUCIFERASE INFECTION ASSAY - IC50) was determined as 1.73 µM.
For the molecule `C/C(=N\NC(=S)Nc1cccc(Cl)c1C)c1cccc(C(F)(F)F)c1`, the concentration for an effect of 90% (IC90) was more than 10 µM. Further, the half-inhibitory concentration (IC50) (HEPG2TOX_HILL_SLOPE 2.50, 1.90, HEPG2TOX_R_SQUARED 0.489, 0.932, PBLUC_HILL_SLOPE 2.58, PBLUC_R_SQUARED 0.215, read-out: LUCIFERASE INFECTION ASSAY - IC50) was found to be 7.21 µM.
On to `CCn1nc(C(=O)N2CCN(c3ccccc3)CC2)c2c1CCN(Cc1cc(C)c(OC)cc1C)C2`, for which the IC90 was more than 6.77 µM. The IC50 (HEPG2TOX_HILL_SLOPE 2.53, HEPG2TOX_R_SQUARED 0.945, PBLUC_HILL_SLOPE 5.03, PBLUC_R_SQUARED 0.659, read-out: LUCIFERASE INFECTION ASSAY - IC50) was determined as 4.44 µM.
With `CC(=O)Nc1ccc(-c2cnc3ccc(-c4cccc(Oc5ccccc5)c4)nn23)cc1`, the IC90 came to 3.35 µM. Besides, where the note is “HEPG2TOX_HILL_SLOPE 2.48, HEPG2TOX_R_SQUARED 0.914, PBLUC_HILL_SLOPE 2.88, PBLUC_R_SQUARED 0.663, read-out: LUCIFERASE INFECTION ASSAY - IC50”, the 50% inhibitory concentration (IC50) worked out at 1.56 µM.
Take `Cn1c(-c2cccnc2)cc2cnc(Nc3ccc(OC(F)(F)F)cc3)cc21`: the IC90 turned out to be 9.47 µM. Further, under “HEPG2TOX_HILL_SLOPE 2.53, HEPG2TOX_R_SQUARED 0.903, PBLUC_HILL_SLOPE 4.19, PBLUC_R_SQUARED 0.443, read-out: LUCIFERASE INFECTION ASSAY - IC50”, the IC50 is 5.61 µM.
For the molecule `CO[C@H]1[C@@H](O)[C@@H](C)O[C@H](O[C@H]2CC[C@]3(C)C4CC[C@]5(C)[C@@H](C6=CC(=O)OC6)CC[C@]5(O)C4CC[C@]3(O)C2)[C@@H]1O` (stereo partly specified), the IC90 came to 0.258 µM. For the same molecule, the 50% inhibitory concentration (IC50) (HEPG2TOX_HILL_SLOPE 2.49, HEPG2TOX_R_SQUARED 0.917, PBLUC_HILL_SLOPE 3.98, PBLUC_R_SQUARED 0.716, read-out: LUCIFERASE INFECTION ASSAY - IC50) was 0.148 µM.
Take `Cc1cccc(C(=O)Nc2nc3ccccn3c2C(=O)NC(C)C)c1`: the IC90 was more than 9.81 µM. In addition, the 50% inhibitory concentration (IC50) (HEPG2TOX_HILL_SLOPE 2.5, HEPG2TOX_R_SQUARED 0.601, PBLUC_HILL_SLOPE 2.39, PBLUC_R_SQUARED 0.0938, read-out: LUCIFERASE INFECTION ASSAY - IC50) is 6.28 µM.
With `O=C(Nc1nc2ccc(Oc3ccccc3)cc2s1)c1ccoc1`, the IC90 was more than 10 µM. For the same molecule, under “HEPG2TOX_HILL_SLOPE 2.54, HEPG2TOX_R_SQUARED 0.824, PBLUC_HILL_SLOPE 3.93, PBLUC_R_SQUARED 0.329, read-out: LUCIFERASE INFECTION ASSAY - IC50”, the IC50 turned out to be 7.66 µM.
For `Clc1ccc2c(NCc3ccc(CN4CCOCC4)cc3)ccnc2c1`, the IC90 is 4.14 µM. The IC50 (HEPG2TOX_HILL_SLOPE 2.51, 1.28, HEPG2TOX_R_SQUARED 0.778, 0.972, PBLUC_HILL_SLOPE 2.92, 9.52, PBLUC_R_SQUARED 0.401, 0.159, read-out: LUCIFERASE INFECTION ASSAY - IC50) was 4.34 µM.
In the case of `O=C(COc1ccccc1-c1ccccc1)Nc1nc(-c2ccccn2)cs1`, the IC90 came to 9.35 µM. For the same molecule, under “HEPG2TOX_HILL_SLOPE 2.53, HEPG2TOX_R_SQUARED 0.481, PBLUC_HILL_SLOPE 10.3, PBLUC_R_SQUARED 0.199, read-out: LUCIFERASE INFECTION ASSAY - IC50”, the IC50 is 7.56 µM.
With `CC(=O)Nc1cccc(/C(C)=N/n2c(-c3cccc(Br)c3)cs/c2=N\c2ccc(F)cc2)c1`, the IC90 was found to be 1.69 µM. The IC50 (HEPG2TOX_HILL_SLOPE 2.5, HEPG2TOX_R_SQUARED 0.833, PBLUC_HILL_SLOPE 128, PBLUC_R_SQUARED 0.253, read-out: LUCIFERASE INFECTION ASSAY - IC50) worked out at 1.66 µM.
Regarding `CC1=C(C#N)C(/C=N/N(C)c2ncc(C(F)(F)F)cc2Cl)CC(=O)N1` (stereo unspecified), the concentration for an effect of 90% (IC90) turned out to be 3.84 µM. Moreover, the IC50 (HEPG2TOX_HILL_SLOPE 2.47, HEPG2TOX_R_SQUARED 0.965, PBLUC_HILL_SLOPE 13.6, PBLUC_R_SQUARED 0.0536, read-out: LUCIFERASE INFECTION ASSAY - IC50) was 3.27 µM.
On to `O=S(=O)(Nc1cc(Cl)c(Cl)cc1Cl)c1cc(C(F)(F)F)cc(C(F)(F)F)c1`, for which the 90% effect concentration (IC90) was 1.98 µM. In addition, the half-inhibitory concentration (IC50) (HEPG2TOX_HILL_SLOPE 2.48, HEPG2TOX_R_SQUARED 0.974, PBLUC_HILL_SLOPE 1.87, PBLUC_R_SQUARED 0.724, read-out: LUCIFERASE INFECTION ASSAY - IC50) was 0.611 µM.
For the molecule `COc1ccc(NCC2(c3ccnc(-c4ccccc4Cl)c3)CC2)cn1`, the IC90 is more than 10 µM. In addition, the IC50 (HEPG2TOX_HILL_SLOPE 2.53, HEPG2TOX_R_SQUARED 0.891, PBLUC_HILL_SLOPE 5.38, PBLUC_R_SQUARED 0.384, read-out: LUCIFERASE INFECTION ASSAY - IC50) amounted to 7.39 µM.
With `O=C1NCC(COC(=O)c2ccc3c4c(cccc24)CC3)O1` (stereo unspecified), the IC90 came out at 3.64 µM. Further, the concentration for half-maximal inhibition (IC50) (HEPG2TOX_HILL_SLOPE 2.53, HEPG2TOX_R_SQUARED 0.949, PBLUC_HILL_SLOPE 23.6, PBLUC_R_SQUARED 0.351, read-out: LUCIFERASE INFECTION ASSAY - IC50) amounted to 3.32 µM.
In the case of `COc1ccc(CCC(=O)N(c2nc(-c3ccc(C)cc3)cs2)c2cc(C)ccc2C)cc1OC`, the concentration for an effect of 90% (IC90) turned out to be 4.21 µM. Further, the IC50 (HEPG2TOX_HILL_SLOPE 2.48, HEPG2TOX_R_SQUARED 0.955, PBLUC_HILL_SLOPE 14.1, PBLUC_R_SQUARED 0.228, read-out: LUCIFERASE INFECTION ASSAY - IC50) stood at 3.6 µM.
In the case of `N#CC(/N=C\c1ccc(Cl)cc1)=C(\C#N)NC(=O)Nc1ccc(OC(F)(F)F)cc1`, the IC90 turned out to be 2.75 µM. In addition, the IC50 (HEPG2TOX_HILL_SLOPE 2.54, HEPG2TOX_R_SQUARED 0.983, PBLUC_HILL_SLOPE 13.2, PBLUC_R_SQUARED 0.605, read-out: LUCIFERASE INFECTION ASSAY - IC50) was found to be 2.33 µM.
With `O=C(Nc1ccc(OCc2ccccc2)cc1)c1csc(C(O)c2cccc(Cl)c2)n1` (stereo unspecified), the IC90 was determined as 3.73 µM. The 50% inhibitory concentration (IC50) (HEPG2TOX_HILL_SLOPE 2.48, HEPG2TOX_R_SQUARED 0.94, PBLUC_HILL_SLOPE 11.3, PBLUC_R_SQUARED 0.644, read-out: LUCIFERASE INFECTION ASSAY - IC50) turned out to be 3.07 µM.
Consider `O=C(Nc1ccccc1)Nc1nnc(C(F)(F)F)s1`, for which the IC90 is 1.07 µM. Further, where the note is “HEPG2TOX_HILL_SLOPE 2.53, HEPG2TOX_R_SQUARED 0.953, PBLUC_HILL_SLOPE 4.44, PBLUC_R_SQUARED 0.774, read-out: LUCIFERASE INFECTION ASSAY - IC50”, the IC50 was found to be 0.65 µM.
With `CCOC(=O)C1=C(C)NC(C)=C(C(=O)OCC)C1C(=O)OCC(=O)NC12CC3CC(CC(C3)C1)C2`, the IC90 was more than 10 µM. Besides, the half-inhibitory concentration (IC50) (HEPG2TOX_HILL_SLOPE 2.54, HEPG2TOX_R_SQUARED 0.735, read-out: LUCIFERASE INFECTION ASSAY - IC50) is more than 10 µM.

(Values after ChEMBL document CHEMBL4483862, “Open-source discovery of chemical leads for next-generation chemoprotective antimalarials” (2018).)
